From patent US6737383B1, “Herbicidal oxadiazolidines” (priority 1999, dated 2004)

Assays:
bedstraw = test: Test B pre/postemergence bedstraw; assay type: in vivo, Galium aparine
Summary of the method: (§1)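 Test chemicals in a non-phytotoxic solvent mixture with surfactant were sprayed preemergence onto planted seeds and postemergence onto plants 2 to 18 cm tall (1- to 4-leaf stage). After twelve to sixteen days in a greenhouse, injury was visually rated against untreated controls from 0 (no effect) to 10 (complete control).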

cocklebur = test: Test B pre/postemergence cocklebur; assay type: in vivo, Xanthium strumarium
Summary of the method: as §1

corn = test: Test B pre/postemergence corn; assay type: in vivo, Zea mays
Summary of the method: as §1

crabgrass = test: Test B pre/postemergence crabgrass; assay type: in vivo, Digitaria sanguinalis
Summary of the method: as §1

giant foxtail = test: Test B pre/postemergence giant foxtail; assay type: in vivo, Setaria faberii
Summary of the method: as §1

morningglory = test: Test B pre/postemergence morningglory; assay type: in vivo, Ipomoea hederacea; conditions: for Plant response rating, Morningglory: scale of 0 to 10 where 0 is no effect and 10 is complete control
Summary of the method: as §1

pigweed = test: Test B pre/postemergence pigweed; assay type: in vivo, Amaranthus retroflexus; conditions: for Plant response rating, Redroot pigweed: scale of 0 to 10 where 0 is no effect and 10 is complete control
Summary of the method: as §1

rape = test: Test B pre/postemergence rape; assay type: in vivo, Brassica napus; conditions: for Plant response rating, Rape: scale of 0 to 10 where 0 is no effect and 10 is complete control
Summary of the method: as §1

soybean = test: Test B pre/postemergence soybean; assay type: in vivo, Glycine max; conditions: for Plant response rating, Soybean: scale of 0 to 10 where 0 is no effect and 10 is complete control
Summary of the method: as §1

velvetleaf = test: Test B pre/postemergence velvetleaf; assay type: in vivo, Abutilon theophrasti; conditions: for Plant response rating, Velvetleaf: scale of 0 to 10 where 0 is no effect and 10 is complete control
Summary of the method: as §1

wheat = test: Test B pre/postemergence wheat; assay type: in vivo, Triticum aestivum; conditions: for Plant response rating, Wheat: scale of 0 to 10 where 0 is no effect and 10 is complete control
Summary of the method: as §1

wild oat = test: Test B pre/postemergence wild oat; assay type: in vivo, Avena fatua; conditions: for Plant response rating, Wild oats: scale of 0 to 10 where 0 is no effect and 10 is complete control
Summary of the method: as §1

purple nutsedge = test: Test B pre/postemergence purple nutsedge; assay type: in vivo, Cyperus rotundus; conditions: for Plant response rating, Nutsedge: scale of 0 to 10 where 0 is no effect and 10 is complete control
Summary of the method: as §1

rice = test: Test B flood test rice; assay type: in vivo, Oryza sativa
Summary of the method: (§2)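 Plants were grown to the 2-leaf stage before treatment with test chemical, then held in a greenhouse for twelve to sixteen days. Injury was visually rated against untreated controls on a 0–10 scale, where 0 is no effect and 10 is complete control.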

smallflower flatsedge = test: Test B flood test smallflower flatsedge; assay type: in vivo, Cyperus difformis
Summary of the method: as §2

duck salad = test: Test B flood test duck salad; assay type: in vivo, Heteranthera limosa
Summary of the method: as §2

[1] = Preemergence, Rate 250 g/ha, scale 0 to 10, 0 is no effect, 10 is complete control
[2] = Preemergence, Rate 500 g/ha, scale 0 to 10, 0 is no effect, 10 is complete control
[3] = Rate 62 g/ha, Postemergence, scale 0 to 10 (0 no effect, 10 complete control)
[4] = Rate 125 g/ha, Postemergence, scale 0 to 10, 0 is no effect, 10 is complete control
[5] = Postemergence, Rate 250 g/ha, scale 0 to 10
[6] = Postemergence, Rate 500 g/ha, scale of 0 to 10 where 0 is no effect and 10 is complete control
[7] = Preemergence, Rate 62 g/ha, scale of 0 to 10 where 0 is no effect and 10 is complete control
[8] = Preemergence, Rate 125 g/ha, scale of 0 to 10 where 0 is no effect and 10 is complete control
[9] = Rate 62 g/ha, flood test species, Pre-emergence, visual evaluation after twelve to sixteen days
[10] = Rate 125 g/ha, under heading Pre-emergence, flood test species, visual evaluation after twelve to sixteen days
[11] = Rate 250 g/ha, Pre-emergence (flood test species), scale 0 to 10, 0 is no effect, 10 is complete control
[12] = Rate 500 g/ha, Pre-emergence, flood test species, scale 0 to 10 (0 no effect, 10 complete control)

## CC(C)N(C(=O)n1oc(=O)n(CO)c1=O)c1ccc(Cl)cc1 [Compound 457]
bedstraw; [1]
  Bedstraw plant response rating: 0
bedstraw; [2]
  Bedstraw plant response rating: 0
bedstraw; [3]
  Bedstraw plant response rating: 0
bedstraw; [4]
  Bedstraw plant response rating: 0
cocklebur; [5]
  Cocklebur plant response rating: 0
cocklebur; [6]
  Cocklebur plant response rating: 0
cocklebur; [7]
  Plant response rating, Cocklebur: 0
cocklebur; [8]
  Plant response rating, Cocklebur: 0
cocklebur; [1]
  Cocklebur plant response rating: 0
cocklebur; [2]
  Cocklebur plant response rating: 0
cocklebur; [3]
  Cocklebur plant response rating: 0
cocklebur; [4]
  Cocklebur plant response rating: 0
corn; [5]
  Corn plant response rating: 0
corn; [6]
  Corn plant response rating: 0
corn; [7]
  Plant response rating, Corn: 0
corn; [8]
  Plant response rating, Corn: 0
corn; [1]
  Corn plant response rating: 0
corn; [2]
  Corn plant response rating: 0
corn; [3]
  Corn plant response rating: 0
corn; [4]
  Corn plant response rating: 0
crabgrass; [5]
  Crabgrass plant response rating: 0
crabgrass; [6]
  Crabgrass plant response rating: 0
crabgrass; [7]
  Plant response rating, Crabgrass: 0
crabgrass; [8]
  Plant response rating, Crabgrass: 0
crabgrass; [1]
  Crabgrass plant response rating: 0
crabgrass; [2]
  Crabgrass plant response rating: 0
crabgrass; [3]
  Crabgrass plant response rating: 0
crabgrass; [4]
  Crabgrass plant response rating: 0
Giant foxtail; [5]
  Giant foxtail plant response rating: 0
Giant foxtail; [6]
  Giant foxtail plant response rating: 0
Giant foxtail; [7]
  Plant response rating, Giant foxtail: 0
Giant foxtail; [8]
  Plant response rating, Giant foxtail: 0
Giant foxtail; [1]
  Giant foxtail plant response rating: 0
Giant foxtail; [2]
  Giant foxtail plant response rating: 8
Giant foxtail; [3]
  Giant foxtail plant response rating: 0
Giant foxtail; [4]
  Giant foxtail plant response rating: 0
morningglory; [5]
  Morningglory plant response rating: 0
morningglory; Preemergence, Rate 62 g/ha
  Plant response rating, Morningglory: 0
morningglory; Preemergence, Rate 125 g/ha
  Plant response rating, Morningglory: 0
morningglory; [1]
  Morningglory plant response rating: 0
morningglory; [2]
  Morningglory plant response rating: 0
morningglory; [3]
  Morningglory plant response rating: 0
morningglory; [4]
  Morningglory plant response rating: 0
pigweed; [5]
  Redroot pigweed plant response rating: 0
pigweed; Preemergence, Rate 62 g/ha
  Plant response rating, Redroot pigweed: 0
pigweed; Preemergence, Rate 125 g/ha
  Plant response rating, Redroot pigweed: 0
pigweed; [1]
  Redroot pigweed plant response rating: 0
pigweed; [2]
  Redroot pigweed plant response rating: 0
pigweed; [3]
  Redroot pigweed plant response rating: 0
pigweed; [4]
  Redroot pigweed plant response rating: 0
rape; [5]
  Rape plant response rating: 0
rape; Preemergence, Rate 62 g/ha
  Plant response rating, Rape: 0
rape; Preemergence, Rate 125 g/ha
  Plant response rating, Rape: 0
rape; [1]
  Rape plant response rating: 0
rape; [2]
  Rape plant response rating: 0
rape; [3]
  Rape plant response rating: 0
rape; [4]
  Rape plant response rating: 0
soybean; [5]
  Soybean plant response rating: 1
soybean; Preemergence, Rate 62 g/ha
  Plant response rating, Soybean: 0
soybean; Preemergence, Rate 125 g/ha
  Plant response rating, Soybean: 0
soybean; [1]
  Soybean plant response rating: 0
soybean; [2]
  Soybean plant response rating: 0
soybean; [3]
  Soybean plant response rating: 0
soybean; [4]
  Soybean plant response rating: 0
velvetleaf; [5]
  Velvetleaf plant response rating: 0
velvetleaf; Preemergence, Rate 62 g/ha
  Plant response rating, Velvetleaf: 0
velvetleaf; Preemergence, Rate 125 g/ha
  Plant response rating, Velvetleaf: 0
velvetleaf; [1]
  Velvetleaf plant response rating: 0
velvetleaf; [2]
  Velvetleaf plant response rating: 0
velvetleaf; [3]
  Velvetleaf plant response rating: 0
velvetleaf; [4]
  Velvetleaf plant response rating: 0
wheat; [5]
  Wheat plant response rating: 0
wheat; Preemergence, Rate 62 g/ha
  Plant response rating, Wheat: 0
wheat; Preemergence, Rate 125 g/ha
  Plant response rating, Wheat: 0
wheat; [1]
  Wheat plant response rating: 0
wheat; [2]
  Wheat plant response rating: 0
wheat; [3]
  Wheat plant response rating: 0
wheat; [4]
  Wheat plant response rating: 0
Wild oat; [5]
  Wild oats plant response rating: 0
Wild oat; Preemergence, Rate 62 g/ha
  Plant response rating, Wild oats: 0
Wild oat; Preemergence, Rate 125 g/ha
  Plant response rating, Wild oats: 0
Wild oat; [1]
  Wild oats plant response rating: 0
Wild oat; [2]
  Wild oats plant response rating: 0
Wild oat; [3]
  Wild oats plant response rating: 0
Wild oat; [4]
  Wild oats plant response rating: 0
Purple nutsedge; [5]
  Nutsedge plant response rating: 0
Purple nutsedge; Preemergence, Rate 62 g/ha
  Plant response rating, Nutsedge: 0
Purple nutsedge; Preemergence, Rate 125 g/ha
  Plant response rating, Nutsedge: 0
Purple nutsedge; [1]
  Nutsedge plant response rating: 0
Purple nutsedge; [2]
  Nutsedge plant response rating: 0
Purple nutsedge; [3]
  Nutsedge plant response rating: 0
Purple nutsedge; [4]
  Nutsedge plant response rating: 0
rice; [9]
  Plant response rating, Rice (0 to 10 scale, 0 is no effect, 10 is complete control): 0
rice; [10]
  Rice plant response rating (0 to 10 scale, 0 is no effect, 10 is complete control): 0
rice; [11]
  Rice plant response rating: 0
rice; [12]
  Rice plant response rating: 0
Smallflower flatsedge; [9]
  Plant response rating, S. Flatsedge (0 to 10 scale, 0 is no effect, 10 is complete control): 0
Smallflower flatsedge; [10]
  S. Flatsedge plant response rating (0 to 10 scale, 0 is no effect, 10 is complete control): 0
Smallflower flatsedge; [11]
  S. Flatsedge plant response rating: 0
Smallflower flatsedge; [12]
  S. Flatsedge plant response rating: 0
Duck salad; [9]
  Plant response rating, Ducksalad (0 to 10 scale, 0 is no effect, 10 is complete control): 0
Duck salad; [10]
  Ducksalad plant response rating (0 to 10 scale, 0 is no effect, 10 is complete control): 0
Duck salad; [11]
  Ducksalad plant response rating: 0
Duck salad; [12]
  Ducksalad plant response rating: 0
